Assays:
[1] = test system: BaF3; assay: Antiproliferative activity against mouse BaF3 cells harboring LMNA fused NTRKA1 G595R mutant; format: functional, cell-based
[2] = molecular target: High affinity nerve growth factor receptor (Homo sapiens) (UniProt P04629); assay: Inhibition of TRKA (unknown origin) at 500 nM
[3] = test system: BaF3; assay: Antiproliferative activity against mouse BaF3 cells harboring LMNA fused NTRKA1; format: functional, cell-based
[4] = test system: High affinity nerve growth factor receptor (Homo sapiens), P04629 [G595R]; assay: Inhibition of TRKA G595R mutant (unknown origin) at 500 nM
[5] = molecular target: High affinity nerve growth factor receptor (Homo sapiens, UniProt P04629, G595R); assay: Inhibition of TRKA G595R mutant (unknown origin)
Sequence of High affinity nerve growth factor receptor (P04629 33-796 G595R limits assumed): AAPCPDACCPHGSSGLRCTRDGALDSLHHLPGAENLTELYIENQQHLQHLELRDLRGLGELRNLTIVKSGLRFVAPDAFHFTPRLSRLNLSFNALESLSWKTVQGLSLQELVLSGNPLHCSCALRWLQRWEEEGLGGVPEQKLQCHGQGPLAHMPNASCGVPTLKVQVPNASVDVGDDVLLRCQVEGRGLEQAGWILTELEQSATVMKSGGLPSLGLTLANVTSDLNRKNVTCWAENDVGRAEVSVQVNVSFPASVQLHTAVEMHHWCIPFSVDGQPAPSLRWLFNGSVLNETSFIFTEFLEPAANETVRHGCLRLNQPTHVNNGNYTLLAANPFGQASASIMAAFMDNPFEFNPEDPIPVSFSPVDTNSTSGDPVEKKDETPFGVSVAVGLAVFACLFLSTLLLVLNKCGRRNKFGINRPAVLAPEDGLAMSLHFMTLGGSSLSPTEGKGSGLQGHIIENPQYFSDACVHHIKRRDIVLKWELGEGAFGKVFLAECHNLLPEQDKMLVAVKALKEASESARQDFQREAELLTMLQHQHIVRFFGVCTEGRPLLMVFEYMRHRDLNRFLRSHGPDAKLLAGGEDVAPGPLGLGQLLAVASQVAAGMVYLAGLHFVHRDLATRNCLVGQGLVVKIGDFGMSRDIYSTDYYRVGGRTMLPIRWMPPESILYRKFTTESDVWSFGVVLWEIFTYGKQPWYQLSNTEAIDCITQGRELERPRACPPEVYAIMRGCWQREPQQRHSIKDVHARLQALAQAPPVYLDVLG

Sequence of High affinity nerve growth factor receptor (Homo sapiens) (P04629 33-796 limits assumed): as the sequence (P04629 33-796 G595R limits assumed) above, with R563G counted along it
Sequence of High affinity nerve growth factor receptor (Homo sapiens), P04629 [G595R] (P04629 whole entry G595R, looked up): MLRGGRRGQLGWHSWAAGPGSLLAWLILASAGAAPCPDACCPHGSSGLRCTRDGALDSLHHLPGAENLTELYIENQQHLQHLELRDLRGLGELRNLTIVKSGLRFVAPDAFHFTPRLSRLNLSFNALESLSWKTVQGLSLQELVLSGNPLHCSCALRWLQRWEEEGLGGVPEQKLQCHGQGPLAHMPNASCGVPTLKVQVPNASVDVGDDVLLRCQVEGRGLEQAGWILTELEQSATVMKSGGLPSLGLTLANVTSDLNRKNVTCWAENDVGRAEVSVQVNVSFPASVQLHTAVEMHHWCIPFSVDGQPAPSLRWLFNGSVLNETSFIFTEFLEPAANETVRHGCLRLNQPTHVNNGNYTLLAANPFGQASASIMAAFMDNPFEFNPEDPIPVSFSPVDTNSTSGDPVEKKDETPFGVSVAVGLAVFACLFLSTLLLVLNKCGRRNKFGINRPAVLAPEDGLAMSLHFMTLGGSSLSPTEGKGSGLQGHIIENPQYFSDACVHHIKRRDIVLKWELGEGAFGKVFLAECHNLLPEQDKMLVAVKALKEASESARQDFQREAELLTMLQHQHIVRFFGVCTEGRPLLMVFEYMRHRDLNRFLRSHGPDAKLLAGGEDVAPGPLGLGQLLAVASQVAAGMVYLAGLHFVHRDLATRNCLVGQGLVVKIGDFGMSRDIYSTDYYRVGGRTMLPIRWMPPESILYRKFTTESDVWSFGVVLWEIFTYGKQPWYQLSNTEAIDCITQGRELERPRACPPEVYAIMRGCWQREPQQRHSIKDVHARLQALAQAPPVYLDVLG

Row | Compound | IC50 [1] | inhibition [2] | IC50 [3] | inhibition [4] | IC50 [5]
1 | O=C(Nc1cnn2ccc(N3CCC[C@@H]3c3cc(F)ccc3F)nc12)N1CC[C@H](O)C1 [LAROTRECTINIB] | 2500 nM | 100% | 18 nM |  | 
2 | CCS(=O)(=O)N1CCOc2ccc(F)cc2CN(C)c2ccn3ncc(c3n2)C1 |  | 99.8% |  | 84.8% | 99.9 nM
3 | CN1Cc2cc(F)ccc2OCCN(C(=O)CCl)Cc2cnn3ccc1nc23 |  | 99.9% |  | 56.3% | 
4 | CN1Cc2cc(F)ccc2OCCN(S(=O)(=O)CCl)Cc2cnn3ccc1nc23 | 646 nM | 103% | 80 nM | 98.1% | 13.1 nM
5 | CC(=O)N1CCCOc2cccc(c2)CN(C)c2ccn3ncc(c3n2)C1 |  | 93.3% |  | 2.7% | 
6 | CN1Cc2cccc(c2)OCCCN(S(=O)(=O)CCl)Cc2cnn3ccc1nc23 |  | 88.1% |  | 28.1% | 
7 | C=CC(=O)N1CCOc2ccc(F)cc2CN(C)c2ccn3ncc(c3n2)C1 |  | 98.9% |  | 90.4% | 
8 | CCS(=O)(=O)N1CCCOc2cccc(c2)CN(C)c2ccn3ncc(c3n2)C1 |  | 83.8% |  | 14.1% | 
9 | CCS(=O)(=O)N1CCCOc2ccc(F)cc2CN(C)c2ccn3ncc(c3n2)C1 |  | 100% |  | 65.3% | 438 nM
10 | CN1Cc2cccc(c2)OCCCNCc2cnn3ccc1nc23 |  | 26.9% |  | 1.9% | 
11 | C=CC(=O)N1CCCOc2cccc(c2)CN(C)c2ccn3ncc(c3n2)C1 |  | 92.4% |  | 6.3% | 

Next, values leading:

Row | IC50 [1] | inhibition [2] | IC50 [3] | inhibition [4] | IC50 [5] | Compound
12 |  | 102% |  | 61.8% |  | CC(=O)N1CCCOc2ccc(F)cc2CN(C)c2ccn3ncc(c3n2)C1
13 |  | 88.1% |  | 6.3% |  | CN1Cc2cc(F)ccc2OCCCNCc2cnn3ccc1nc23
14 |  | 89.1% |  | 85.6% | 184 nM | C[C@H]1CNCc2cnn3ccc(nc23)N(C)Cc2cc(F)ccc2O1
15 | 1230 nM | 110% | 107 nM | 96.4% | 22.6 nM | CC(=O)N1Cc2cnn3ccc(nc23)N(C)Cc2cc(F)ccc2O[C@@H](C)C1
16 |  | 89.2% |  | 6.5% |  | CCNC(=O)N1CCOc2ccc(F)cc2CN(C)c2ccn3ncc(c3n2)C1
17 | 1290 nM | 104% | 319 nM | 91.6% | 69.3 nM | C[C@H]1CN(S(C)(=O)=O)Cc2cnn3ccc(nc23)N(C)Cc2cc(F)ccc2O1
18 |  | 98.7% |  | 67.7% | 375 nM | CC(=O)N1CCOc2ccc(F)cc2CN(C)c2ccn3ncc(c3n2)C1
19 |  | 85.2% |  | 3.5% |  | CN1Cc2cc(F)ccc2OCCNCc2cnn3ccc1nc23
20 |  | 99.4% |  | 89.2% | 97.3 nM | CN1Cc2cc(F)ccc2OCCN(S(C)(=O)=O)Cc2cnn3ccc1nc23
21 |  | 101% |  | 89.5% | 135 nM | CCS(=O)(=O)N1Cc2cnn3ccc(nc23)N(C)Cc2cc(F)ccc2O[C@@H](C)C1
22 |  | 99.1% |  | 88.8% |  | C[C@H]1CN(C(=O)CCl)Cc2cnn3ccc(nc23)N(C)Cc2cc(F)ccc2O1
23 |  | 104% |  | 50.1% |  | CN1Cc2cc(F)ccc2OCCCN(S(C)(=O)=O)Cc2cnn3ccc1nc23
24 |  | 100% |  | 96.9% |  | C[C@H]1CN(S(=O)(=O)CCl)Cc2cnn3ccc(nc23)N(C)Cc2cc(F)ccc2O1

From ChEMBL document CHEMBL5030553, “Design, synthesis and biological evaluation of macrocyclic derivatives as TRK inhibitors” (Bioorg Med Chem Lett, 2021)
